According to patent US9724537B2, “Abnormal electrical conduction blocking apparatus using photodynamic therapy (PDT)” (Keio University, priority 2006, dated 2017):

How the values were obtained:
[1] = Pharmacokinetics of talaporfin sodium, rat plasma; assay type: in vivo; details: intravenous
Description: FIG. 45 is a graph showing changes in plasma concentrations after intravenous injection to rats at various doses (10, 5, 2, 1 mg/kg) and to humans at 1 mg/kg over time, using data in pharmacology studies and clinical studies with talaporfin sodium. In rats, the average of the mean plasma concentrations measured at 47 min, which was the average of the half-lives from 2 to 60 min after intravenous injection at a dose of 10 mg/kg, and at 5 min was used as true values, and concentration changes were calculated until 60 min. Furthermore, a straight line was drawn between the value at 60 min and the value at 120 min calculated using the average of the plasma concentrations measured at 9.6 h, which was the average of the half-lives from 2 to 24 h after intravenous injection, and at 24 h as a true value. Changes at each dose were calculated assuming that the plasma concentration changed in proportion to the dose.

[2] = test system: cultured cardiac muscle cells derived from an SD rat; assay: PDT cell lethality vs photosensitizer concentration, loading time and total dose (CCK-8); assay type: cell-based; details: for cell lethality at 2 h after irradiation: loading 0 to 120 min, 5, 10, 15 J/cm^2
Description: Using cultured cardiac muscle cells derived from an SD rat, the relationship of the photosensitizer concentration, the photosensitizer loading time, and the cell lethality and the laser output required to induce cell death were examined
Cultured cardiac muscle cells derived from an SD rat were purchased from Cell Garage Co., Ltd. D-MEM/F12+10% FBS was used as a medium.
2.2 to 2.3×10^5 cells/ml of cardiac muscle cells in suspension were seeded on a collagen-coated 96-well plate at 0.1 ml/well (2.2 to 2.3×10^4 cells/well) and cultured in an incubator (37° C., CO2 concentration 5%) for six to seven days.
At this time, talaporfin sodium as a photosensitizer was dissolved in a medium at 5, 15, or 30 μg/ml. Cardiac muscle cells were loaded with talaporfin sodium for 0, 30, 60, or 120 min and irradiated with a laser beam. Laser irradiation was performed using a continuous semiconductor laser beam (peak wavelength, 670.8 nm; power density, 150 mW/cm^2) on a 0.5-cm^2 irradiation field (=area of a well) at 5, 10, and 15 J/cm^2.
After laser irradiation, 0.01 ml of Cell Counting Kit-8 (Dojindo Laboratories, hereinafter referred to as CCK-8) was added to the medium in each well, the plate was incubated for 2 h, and the absorbance at 450 nm was measured to calculate the cell lethality. The cell lethality was calculated based on the absorbance without performing laser irradiation as 100%.

[3] = test system: isolated right ventricular free wall of a Wistar rat; assay: PDT electrical conduction block experiment in ex vivo system
Description: As materials, spread samples of an isolated right ventricular free wall of a Wistar rat (male, 8 to 10 weeks old) were used. The length (L) and the thickness (d) of sample photoradiation lines in each experiment are as follows.
Experiment 1: L=0.9 cm, d=1.5 mm
Experiment 2: L=0.76 cm, d=1.5 mm
Experiment 3: L=1.2 cm, d=1.4 mm
Experiment 4: L=0.88 cm, d=1.4 mm
Tyrode's solution (95% O2 and 5% CO2 gases were passed through, and the temperature was maintained at 37° C. in a constant-temperature apparatus) was used as a perfusion fluid.
Immediately after isolation, the heart was dipped in the perfusion fluid heated at about 37° C., and a right ventricular tissue was ablated. The ablated tissue was fixed on the silicon floor of a tissue bath with a 0.2 mmφ tungsten wire, and then the perfusion fluid was allowed to flow.
Immediately after rats were allowed to inhale vaporized diethyl ether, heparin and Nembutal (0.2 and 0.5 ml, respectively) were administered intraperitoneally, and approx. 0.5 ml of talaporfin sodium (Laserphyrin [registered trade name] Meiji Seika Kaisha, Ltd.) dissolved in physiological saline was intravenously injected from the vena cava of the rat lower extremity. After the heart was isolated, a right ventricular tissue was ablated in a normal Tyrode's solution and fixed in a tissue bath. Then, Tyrode's solutions in which talaporfin sodium was dissolved at various concentrations (see Reference Example 1 described later, set assuming a half of the plasma concentration at each dose and interval as blood concentration) (these are referred to as photosensitizer solutions), and loaded by circulatory perfusion for a period equal to time required from the heart isolation to bath fixation (approx. 10 min), and laser irradiation was performed with surface perfusion. The photosensitizer dose (D), the interval to heart isolation, and the concentration of the photosensitizer solution (c) in each experimental example were as follows.
Experiment 1: D=5 mg/kg; interval, 30 min; c=30 μg/ml
Experiment 2: D=5 mg/kg; interval, 60 min; c=20 μg/ml
Experiment 3: D=2 mg/kg; interval, 30 min; c=12 μg/ml
Experiment 4: D=2 mg/kg; interval, 60 min; c=8 μg/ml
A continuous semiconductor laser beam (SONY, peak wavelength, 670 band) was transmitted with a quartz fiber (core diameter, 800 μm), and the fiber was used virtually in contact with the tissue surface with an output at the end thereof being 5 mW. Laser irradiation was performed while reciprocating the fiber horizontally across the tissue over approx. 1 cm on the tissue surface. The laser irradiation time (T) and the total dose of laser irradiation (It) in each experimental example were as follows.
Experiment 1: T=60 s, It=4.2 J/cm^2
Experiment 2: T=80 s, It=6.6 J/cm^2
Experiment 3: T=267 s, It=14 J/cm^2
Experiment 4: T=500 s, It=36 J/cm^2
0.8-mA electrical stimulus was applied from a bipolar electrode (Unique Medical Co., Ltd., obtained by twining 0.2-mmφ silver chloride wires) with a stimulator and an isolator (Nihon Kohden Corporation) every 300 ms, and two bipolar electrodes for measuring a potential (Unique Medical Co., Ltd., 0.25 mmφ stainless) were placed on the tissue surface to measure a extracellular potential (FIG. 24). […] A signal was led to a bioamplifier (Physio-Tech Co., Ltd., DAM50) and recorded and analyzed using a biosignal recording/analyzing apparatus (AD Instrumens) (FIG. 25). FIG. 25 is a schematic view showing an ex vivo experimental system.
FIGS. 26 to 29 show extracellular potentials before and after PDT a led potential in each experiment. In FIGS. 26 to 29, the upper line (red line) and the lower line (blue line) in one graph represent potentials in X and Y in FIG. 24, respectively. The vertical axis represents voltage.

[4] = Experiment 1: 5 mg/kg i.v., interval 30 min, 30 μg/ml, 4.2 J/cm^2
[5] = Experiment 2: 5 mg/kg i.v., interval 60 min, 20 μg/ml, 6.6 J/cm^2
[6] = Experiment 3: 2 mg/kg i.v., interval 30 min, 12 μg/ml, 14 J/cm^2
[7] = Experiment 4: 2 mg/kg i.v., interval 60 min, 8 μg/ml, 36 J/cm^2

C=Cc1c(C)c2cc3nc(c(CC(=O)N[C@@H](CC(=O)O)C(=O)O)c4[nH]c(cc5nc(cc1[nH]2)C(C)=C5CC)c(C)c4C(=O)O)[C@@H](CCC(=O)O)[C@@H]3C [talaporfin sodium, mono-L-aspartyl chlorine 6]
concentration at 30 min ([1]; conditions of Experiment 3 (2 mg/kg, interval 30 min)): 24000 ng/mL
concentration at 60 min ([1]; conditions of Experiment 4 (2 mg/kg, interval 60 min)): 16000 ng/mL
cell lethality at 2 h after irradiation ([2]; 15 μg/ml or lower): no marked effect was observed
cell morphology immediately after laser beam irradiation ([2]; 30 μg/ml, 15 J/cm^2, loading 30 min): marked changes in cell morphology, such as exfoliation and shrinkage of cells, were observed
cell lethality at 2 h after irradiation ([2]; 30 μg/ml): the cell lethality markedly increased after laser beam irradiation
cell lethality vs loading time ([2]; loading 0, 30, 60, 120 min, FIG. 19): loading for 30 min was most effective
electrical conduction block after PDT [3, 4]: an electrical conduction block occurred after PDT
time the conduction block state was maintained [3, 4]: 3 h
electrical conduction block after PDT [3, 5]: an electrical conduction block occurred after PDT
time the conduction block state was maintained [3, 5]: 2 h
electrical conduction block after PDT [3, 6]: an electrical conduction block occurred after PDT
time the conduction block state was maintained [3, 6]: 3 h
electrical conduction block after PDT [3, 7]: an electrical conduction block occurred after PDT
time the conduction block state was maintained [3, 7]: 3 h
